Experimental data from patent publication US12070467B2, “Method of treating ciliated tissue using CSA micelles” (Brigham Young University, priority 2018, dated 2024).

Columns and labels:
C. auris CDC 384 biofilm = assay: Minimum biofilm eradication concentration (MBEC); format: cell-based, Candida auris; settings: 48 h biofilm, 24 h treatment
Experimental: (§1) Staphylococcus aureus (ATCC 25923) and Pseudomonas aeruginosa (ATCC 47085 (PA01)) were grown from fresh colonies in trypticase soy broth (TSB) and incubated overnight at 37° C. Fungal cultures, Candida albicans (ATCC 90028) and Candida auris (CDC 0382, 0384, 0387, and 0389), were grown overnight in sabouraud dextrose broth (SDB) or Roswell Park Memorial Institute medium (RPMI). Cultures of bacteria and fungi were centrifuged, and pellets were washed three times with phosphate buffered saline (PBS) and further resuspended in fresh PBS. Bacterial cultures were diluted in TSB and fungal cultures were diluted in SDB or RPMI to […] or 10^6 CFU/mL (optical density (OD) readings at 600 nm).
(§2) Inocula (10^6 CFU/mL) of bacterial and fungal strains (P. aeruginosa, S. aureus, C. albicans, and C. auris) were incubated at 37° C. for 48 h in 1 mL of TSB or SDB in 96-well plates. Following incubation, the growth medium was gently removed, and wells were washed three times with sterile PBS. […] Wells, including well edges, were scraped thoroughly with a plastic spatula. Well contents were removed in 1 mL of neutralizing broth (Dey-Engley, Sigma-Aldrich) and placed in a sonicating water bath (Fisher Scientific FS60, 42 kHz, 100 W, Pittsburgh, PA, USA) to disrupt biofilms. After 15 min, the resulting samples were serially diluted, and bacterial samples were plated on TSA while fungal samples were plated on SDA. After 24 h or 48 h of incubation at 37° C., colonies were counted and MBECs were determined. The minimum biofilm eradication concentration (MBEC) was defined as the lowest concentration of antibiotic that prevented bacterial regrowth.

C. auris CDC 382 biofilm = assay: Minimum biofilm eradication concentration (MBEC); format: cell-based, Candida auris; settings: 48 h biofilm, 24 h treatment
Experimental: as §1, §2

[1] = test system: C. albicans ATCC 90028 biofilm; assay: Minimum biofilm eradication concentration (MBEC); format: cell-based, Candida albicans; settings: 48 h biofilm, 24 h treatment
Experimental: as §1
as §2, with “After 15 min, the resulting samples were serially diluted, and bacterial samples were plated on TSA while fungal samples were plated on SDA.” left out, “The minimum biofilm eradication concentration (MBEC) was defined as the lowest concentration of antibiotic that prevented bacterial regrowth.” left out

C. albicans = assay: Kinetics of fungicidal activity; format: cell-based, Candida albicans; settings: CSA-131 100 μg/mL, pluronic 4%, data not shown
Experimental: (§3) Cultures were incubated at 37° C. At 5, 15, 30, 60, and 120 min, aliquots were removed from each well and added to neutralizing buffer to ensure that no further antibacterial activity occurred. These samples were then serially diluted and plated on TSA or SDA. Cultures were incubated at 37° C. for 24 h or 48 h, and colonies were counted and recorded.
(§4) Detection limit was two logs.

C. albicans ATCC 90028 = assay: Minimum inhibitory concentration (MIC), broth microdilution; format: cell-based, Candida albicans; settings: 37° C., 18-20 h
Experimental: as §1
(§5) Minimum inhibitory concentrations (MICs) were measured using the broth microdilution protocol described by the Clinical and Laboratory Standards Institute. […] Aliquots (100 μL) of a prepared inoculum (10^6 CFU/mL for bacteria and […] CFU/mL for fungi) were added, and plates were incubated at 37° C. for 18-20 h. Bacterial or fungal growth was visually observed to determine the MICs. Negative and positive controls were included for each set of MIC measurements. For studies with pluronic, the surfactant was added at 4% and 5% to the initial inocula in each experiment. Measurements were performed in triplicate for all susceptibility tests.

S. aureus ATCC 25923 = assay: as above; format: cell-based, Staphylococcus aureus; settings: 37° C., 18-20 h
Experimental: as §1, §5

P. aeruginosa ATCC 47085 = assay: as above; format: cell-based, Pseudomonas aeruginosa; settings: 37° C., 18-20 h
Experimental: as §1, §5

[2] = test system: bacterial and fungal biofilms: S. aureus (ATCC 25923), P. aeruginosa (ATCC 47085), C. albicans (ATCC 90028), C. auris (CDC 384); assay: Antibiofilm activity by plating organisms freed from biofilms and counting colonies (FIG. 2); format: cell-based; settings: 100 μg/mL, 48 h biofilms
Experimental: Consequently, this concentration was used as a target for antibacterial and antifungal activity, as well as in tolerability studies with trachea and lung explants. A key preliminary question in these studies is whether the pluronic alone has any effect on bacteria and fungi. […] In these assays, biofilms were generated over 48 h, and after treatment, bacterial and fungal counts were determined by plating organisms freed from biofilms and counting colonies. Detection limits for the experiments were two logs. […] Antibiofilm results were determined through the plating of microorganisms freed from biofilms, culturing, and plate counting. In FIG. 2, white bars show remaining S. aureus (ATCC 25923); black bars show remaining P. aeruginosa (ATCC 47085); gray bars show remaining C. albicans (ATCC 90028); hashed bars show remaining C. auris (CDC 384). The Detection limit was 2 logs. * indicates p<0.05 relative to controls and to pluronic alone.

[3] = test system: P. aeruginosa ATCC 47085 biofilm; assay: Minimum biofilm eradication concentration (MBEC); format: cell-based, Pseudomonas aeruginosa; settings: 48 h biofilm, 24 h treatment
Experimental: as §1
as §2, with “After 15 min, the resulting samples were serially diluted, and bacterial samples were plated on TSA while fungal samples were plated on SDA.” left out, “The minimum biofilm eradication concentration (MBEC) was defined as the lowest concentration of antibiotic that prevented bacterial regrowth.” left out

[4] = test system: P. aeruginosa (ATCC 47085); assay: Kinetics of bactericidal activity (FIG. 4); format: cell-based, Pseudomonas aeruginosa; settings: detection limit two logs
Experimental: as §3, §4

[5] = test system: C. albicans (ATCC 90028) and C. auris (CDC 384) in trachea and lung explants; assay: Ex vivo antifungal efficacy in porcine trachea and lung explants (FIGS. 7A, 7B); format: cell-based, Candida albicans, Candida auris; settings: 24 h
Experimental: Using 5 mm^3 explant cubes of porcine trachea and lung, ex vivo antifungal efficacy experiments were conducted. Cubes were dissected using a sterile razor blade form the ventral surface of the left caudal lobe of three sets of porcine lungs. After trimming excess tissues away from the explants to produce uniform of size (5 mm), explants were incubated at 37° C. in DMEM/RPMI inoculated with 10^6 CFU/explant of C. auris (CDC 0384) or C. albicans (ATCC 90028) in a 48-well plate. […] Treated explants were incubated for 24 h at 37° C. After incubation, tissues were suspended in 250 μL of neutralizing broth and vortex on the highest setting for 4 min. Samples were then serially diluted in PBS, plated on 5% sheep blood TSA plates, and incubated at 37° C. for 48 h.
FIGS. 7A and 7B are bar graphs comparing the antifungal activity of CSA compositions with and without micelles on fungi, and against a control without any CSA. White bars shown remaining C. albicans (ATCC 90028); black bars show remaining C. auris (CDC 384).

S. aureus = assay: Kinetics of bactericidal activity; format: cell-based, Staphylococcus aureus; settings: CSA-131 100 μg/mL, pluronic 4%, data not shown
Experimental: as §3
FIG. 4 is a line graph comparing the kinetic antibacterial activity of CSA compositions with micelles compared to a control without CSA. Inocula of just over 10^6 CFU/mL were reduced to the detection limit within 15 min. […] Detection limit was two logs.

CCCCCCCCCCCCNCCC[C@@H](C)[C@H]1CC[C@H]2[C@@H]3[C@H](OCCCN)C[C@@H]4C[C@H](OCCCN)CC[C@]4(C)[C@H]3C[C@H](OCCCN)[C@]12C.Cl.Cl.Cl.Cl [CSA-131]
MBEC (C. auris CDC 384 biofilm): 48 µg/mL | MBEC (C. auris CDC 382 biofilm): 82 µg/mL | MBEC [1]: 48 µg/mL | Difference in kinetic activity of the ceragenin alone and with pluronic (C. albicans): no significant differences | MIC (C. albicans ATCC 90028): 0.5 mg/L | MIC (S. aureus ATCC 25923): 1 mg/L | MIC (P. aeruginosa ATCC 47085): 2 mg/L | Reduction of bacterial and fungal counts from biofilms ([2]; with pluronic): > 99.99% | Reduction of bacterial and fungal counts from biofilms ([2]; with pluronic, counts lowered to the detection limit (two logs)): > four | Reduction of bacterial and fungal counts from biofilms ([2]; without pluronic): > 99.99% | Reduction of bacterial and fungal counts from biofilms ([2]; without pluronic, counts lowered to the detection limit (two logs)): > four | MBEC [3]: 100 µg/mL | Time for inocula of just over 106 CFU/mL to be reduced to the detection limit ([4]; CSA-131 100 μg/mL alone): ≤ 15 min | Time for inocula of just over 106 CFU/mL to be reduced to the detection limit ([4]; CSA-131 100 μg/mL with pluronic (4%)): ≤ 15 min | Decrease of fungal counts in treated explants vs control explants ([5]; CSA-131 alone): up to 99% | Decrease of fungal counts in treated explants vs control explants ([5]; CSA-131 alone, p<0.05 vs controls): one and a half to two | Decrease of fungal counts in treated explants vs control explants ([5]; CSA-131 with pluronic 4%): up to 99% | Decrease of fungal counts in treated explants vs control explants ([5]; CSA-131 with pluronic 4%, p<0.05 vs controls): one and a half to two | Decrease of fungal counts in treated explants vs control explants ([5]; CSA-131 with pluronic 5%): up to 99% | Decrease of fungal counts in treated explants vs control explants ([5]; CSA-131 with pluronic 5%, p<0.05 vs controls): one and a half to two | Difference in kinetic activity of the ceragenin alone and with pluronic (S. aureus): no significant differences
